The test system of one data set is Tetrahymena pyriformis. Description: 48 h IGC50 (-log10 mol/L); higher = more toxic.
As to `CCCCCCCCC(C)=O`, the “48 h IGC50 (-log10 mol/L)” value was determined as 3.58.
For `CCOc1cc(C=O)ccc1O`, the “48 h IGC50 (-log10 mol/L)” value was 3.02.
For `CC=NO`, the “48 h IGC50 (-log10 mol/L)” value was determined as 1.39.
For `CCCCCCCCBr`, the “48 h IGC50 (-log10 mol/L)” value is 4.87.
Still for that read-out and setting: with `Nc1ccccc1` the figure was 2.77.
Same read-out and setting: the value for `COC(=O)c1ccc(Cl)cc1[N+](=O)[O-]` was 3.82; that for `Cc1ccc(C)c(C)c1` was 3.78.
On the same count and under the same terms, with `CCOC(=O)CCCCC(=O)OCC` the figure was 2.87; with `CCC#N`, 1.03.
For `Oc1c(I)cc(I)cc1I`, the “48 h IGC50 (-log10 mol/L)” value turned out to be 5.67.
The same measure, in the same setting: with `C=CC(N)=O` the figure was 2.19.
The same measure, in the same setting: with `CC(C)c1cccc(C(C)C)c1N` the figure was 3.76; with `CCc1ccccn1`, 2.13; with `CC(C)(O)CCc1ccccc1`, 2.93.
On the same count and under the same terms, the value for `CCCC(C)=O` was 1.78; that for `O=[N+]([O-])c1cc([N+](=O)[O-])c(Cl)cc1Cl` was 5.72; that for `C=CCN=C=S` was 5.06.
Consider `CC(C)COC(=O)c1ccccc1C(=O)OCC(C)C`, for which the “48 h IGC50 (-log10 mol/L)” value stood at 4.44.
Same read-out and setting: the value for `C=CCC#N` was 1.52; that for `CC(C)O` was 1.12; that for `Cc1cc(C)c(C#N)c(=O)[nH]1` was 2.3.
Same read-out and setting: with `OCCCCl` the figure was 1.6; with `O=Cc1cccc([N+](=O)[O-])c1`, 3.11; with `C=C(C)C(=O)OCc1ccccc1`, 3.65.
Same read-out and setting: with `O=Cc1c(F)c(F)c(F)c(F)c1F` the figure was 3.82.
In the case of `CCCCOC(=O)/C=C/C(=O)OCCCC`, the “48 h IGC50 (-log10 mol/L)” value came to 4.49.
Regarding `Oc1ccc(Cl)cc1O`, the “48 h IGC50 (-log10 mol/L)” value stood at 4.06.
Still for that read-out and setting: with `Brc1nc(Br)c(Br)[nH]1` the figure was 4.43; with `N#Cc1cccc([N+](=O)[O-])c1`, 3.45; with `CN(C)c1ccccn1`, 2.45.
On the same count and under the same terms, the value for `COC(=O)c1ccc(Cl)cc1` was 3.42.
`CCN(CC)c1ccccc1`: the “48 h IGC50 (-log10 mol/L)” value is 3.66.
Still for that read-out and setting: the value for `CC(C)(C)c1cc(C(C)(C)C)c(O)c(C(C)(C)C)c1` was 3.36.

The test system of another data set is Pimephales promelas. Nature of the data set: 96 h LC50 (-log10 mol/L); higher = more toxic.
On to `CCCCCCCCC(C)=O`, for which the “96 h LC50 (-log10 mol/L)” value came out at 4.51.
Same read-out and setting: the value for `CCOc1cc(C=O)ccc1O` was 3.28.
Same read-out and setting: the value for `CC=NO` was 2.89; that for `CCCCCCCCBr` was 5.36.
For `Nc1ccccc1`, the “96 h LC50 (-log10 mol/L)” value is 2.99.
Still for that read-out and setting: the value for `COC(=O)c1ccc(Cl)cc1[N+](=O)[O-]` was 3.9.
Still for that read-out and setting: with `Cc1ccc(C)c(C)c1` the figure was 4.19; with `CCOC(=O)CCCCC(=O)OCC`, 4.05.
With `CCC#N`, the “96 h LC50 (-log10 mol/L)” value came to 1.56.
Still for that read-out and setting: the value for `Oc1c(I)cc(I)cc1I` was 5.59.
Take `C=CC(N)=O`: the “96 h LC50 (-log10 mol/L)” value stood at 2.79.
As to `CC(C)c1cccc(C(C)C)c1N`, the “96 h LC50 (-log10 mol/L)” value came to 4.1.
Still for that read-out and setting: the value for `CCc1ccccn1` was 2.41.
The same measure, in the same setting: the value for `CC(C)(O)CCc1ccccc1` was 3.39; that for `CCCC(C)=O` was 1.84; that for `O=[N+]([O-])c1cc([N+](=O)[O-])c(Cl)cc1Cl` was 6.78.
Same read-out and setting: the value for `C=CCN=C=S` was 6.06.
Turning to `CC(C)COC(=O)c1ccccc1C(=O)OCC(C)C`, the “96 h LC50 (-log10 mol/L)” value turned out to be 5.49.
The same measure, in the same setting: with `C=CCC#N` the figure was 2.57; with `CC(C)O`, 0.778; with `Cc1cc(C)c(C#N)c(=O)[nH]1`, 2.98.
Still for that read-out and setting: with `OCCCCl` the figure was 2.07.
In the case of `O=Cc1cccc([N+](=O)[O-])c1`, the “96 h LC50 (-log10 mol/L)” value is 4.42.
Still for that read-out and setting: the value for `C=C(C)C(=O)OCc1ccccc1` was 4.58.
As to `O=Cc1c(F)c(F)c(F)c(F)c1F`, the “96 h LC50 (-log10 mol/L)” value was determined as 5.25.
With `CCCCOC(=O)/C=C/C(=O)OCCCC`, the “96 h LC50 (-log10 mol/L)” value is 5.52.
On the same count and under the same terms, with `Oc1ccc(Cl)cc1O` the figure was 4.96; with `Brc1nc(Br)c(Br)[nH]1`, 4.7.
Still for that read-out and setting: with `N#Cc1cccc([N+](=O)[O-])c1` the figure was 3.39.
Same read-out and setting: with `CN(C)c1ccccn1` the figure was 2.98; with `COC(=O)c1ccc(Cl)cc1`, 4.16.
Regarding `CCN(CC)c1ccccc1`, the “96 h LC50 (-log10 mol/L)” value stood at 3.96.
`CC(C)(C)c1cc(C(C)(C)C)c(O)c(C(C)(C)C)c1`: the “96 h LC50 (-log10 mol/L)” value is 6.63.

The record behind these values is EPA's aquatic toxicity sets.
